How the values were obtained:
SW480 cell line [1] = experiment: Cell metabolism of phenolic compounds (UHPLC-HR-MS analysis of cell media); format: in vitro ADME, Human
Description: To analyze the metabolism of phenolic compounds by Caco-2 and SW480 cells, the cell culture media were withdrawn after 0, 24, 48 and 72 h of incubation. Phenolic compounds were extracted from the culture media by following the procedure reported in Sala et al.. Briefly, 100 μL of cold methanol was mixed with 100 μL of cell media and vortexed for 1 min. The mixture was then centrifuged at 10,000× g (4 °C, 5 min) and the supernatant was injected, after appropriate dilution, in an ultra-high-performance liquid chromatography high-resolution mass spectrometry system (UHPLC-HR-MS).
The HR-MS system consisted of a UHPLC Ultimate 3000 separation module, equipped with a C18 column (Acquity UPLC HSS C18 reversed phase, 2.1 × 100 mm, 1.8 μm particle size, Waters, Milan, Italy) and coupled with a Q Exactive Hybrid Quadrupole-Orbitrap Mass Spectrometer (Thermo Scientific, San Jose, CA, USA). Mobile phases consisted of a mixture of water containing formic acid (0.1%) (mobile phase A) and acetonitrile containing formic acid (0.1%) (mobile phase B). The gradient began at 1% B, reaching 40% B over 20 min. To wash the column, the mobile phase B concentration was raised to 99% over 6 min and kept at 99% for 3 min before returning to the initial conditions. The MS and MS/MS conditions are fully described in Martini et al..
Quantification was carried out by building external calibration curves with the available standard compounds.

SW480 cell line [2] = experiment: Anti-proliferative assay (MTS cell proliferation assay); format: cell-based, Human; settings: maximum tested concentration 200 μmol/L
Description: Human colon cancer Caco-2 and SW480 cell lines were cultured and grown as previously reported. […] Incubation was carried out for 24, 48 and 72 h. Data were compared with a control solution containing 0.5% DMSO in cell medium and representing 100% proliferation. In addition, six different mixes were prepared to simulate the simultaneous presence of parent phenolic compounds and metabolites by mimicking the possible human inter-individual variability in colon metabolism of phenolic compounds. Two sets of mixes were prepared to consider the colon metabolism of quercetins and chlorogenic acids. […] For each set of mixtures (QUE and CGA mixtures), three different mixes were formulated. One set of mixes mimicked the low-producers metabotype and contained 90% parent compounds and 10% metabolites (mixes QUE-LP and CGA-LP). Another set of mixes was prepared to simulate the high-producers metabotype and contained 10% parent compounds and 90% metabolites (mixes QUE-HP and CGA-HP). Finally, a third set of mixes was prepared with equimolar amounts of all the compounds (mixes QUE-EQ and CGA-EQ). […] Cell proliferation was assessed by the MTS assay as previously described. […] The IC50 values were calculated through non-linear regression analysis by plotting the base-10 logarithm of the phenolic compound concentration vs. the percentage of inhibition.

[3] = SW480, 24 h, substrate 3-O-Caffeoylquinic acid trans 50 μmol/L
[4] = SW480, 24 h, substrate 5-O-Caffeoylquinic acid trans 50 μmol/L
[5] = SW480, 48 h, substrate 3-O-Caffeoylquinic acid trans 50 μmol/L
[6] = SW480, 48 h, substrate 5-O-Caffeoylquinic acid trans 50 μmol/L
[7] = SW480, 72 h, substrate 3-O-Caffeoylquinic acid trans 50 μmol/L
[8] = SW480, 72 h, substrate 5-O-Caffeoylquinic acid trans 50 μmol/L
[9] = SW480, 24 h, substrate Quercetin 50 μmol/L
[10] = SW480, 48 h, substrate Quercetin 50 μmol/L
[11] = SW480, 48 h, substrate Quercetin-3-O-glucoside-4′-O-glucoside 50 μmol/L
[12] = SW480, 48 h, substrate Quercetin-4′-O-glucoside 50 μmol/L
[13] = SW480, 72 h, substrate Quercetin 50 μmol/L
[14] = SW480, 72 h, substrate Quercetin-3-O-glucoside-4′-O-glucoside 50 μmol/L
[15] = SW480, 72 h, substrate Quercetin-4′-O-glucoside 50 μmol/L

SMILES | Concentration of newly formed metabolite (SW480 cell line [1]; [3]) | Concentration of newly formed metabolite (SW480 cell line [1]; [4]) | Concentration of newly formed metabolite (SW480 cell line [1]; [5]) | Concentration of newly formed metabolite (SW480 cell line [1]; [6]) | Concentration of newly formed metabolite (SW480 cell line [1]; [7]) | Concentration of newly formed metabolite (SW480 cell line [1]; [8]) | Concentration of newly formed metabolite (SW480 cell line [1]; [11]) | Concentration of newly formed metabolite (SW480 cell line [1]; [14]) | also measured
COc1cc(/C=C/C(=O)OC2C(O)CC(O)(C(=O)O)CC2O)ccc1O (stereo not drawn) [4-O-Feruloylquinic acid] | 20 ± 0 nM | 40 ± 0 nM | 40 ± 0 nM | 50 ± 0 nM | 70 ± 0 nM | 40 ± 0 nM | – | – | –
COc1ccc(-c2oc3cc(O)cc(O)c3c(=O)c2O)cc1O [4′-O-methylquercetin] | – | – | – | – | – | – | 10 ± 0 nM | 10 ± 0 nM | Concentration of newly formed metabolite (SW480 cell line [1]; [9]): 970 ± 40 nM; Concentration of newly formed metabolite (SW480 cell line [1]; [10]): 1650 ± 40 nM; Concentration of newly formed metabolite (SW480 cell line [1]; [12]): 490 ± 10 nM; Concentration of newly formed metabolite (SW480 cell line [1]; [13]): 1830 ± 250 nM; Concentration of newly formed metabolite (SW480 cell line [1]; [15]): 710 ± 40 nM
O=C(/C=C/c1ccc(O)c(O)c1)O[C@@H]1C[C@](O)(C(=O)O)C[C@@H](O)[C@H]1O [5-O-Caffeoylquinic acid cis, 5-O-Caffeoylquinic acid] | – | – | – | 970 ± 50 nM | – | 1420 ± 10 nM | – | – | –
COc1cc(/C=C/C(=O)O[C@@H]2C[C@@](O)(C(=O)O)C[C@@H](O)[C@@H]2O)ccc1O [5-O-Feruloylquinic acid] | 30 ± 0 nM | 10 ± 0 nM | 30 ± 0 nM | 30 ± 0 nM | 50 ± 0 nM | 30 ± 0 nM | – | – | –
O=C(O)/C=C/c1ccc(O)c(O)c1 [Caffeic acid] | 440 ± 10 nM | – | 430 ± 10 nM | 80 ± 0 nM | 570 ± 10 nM | 90 ± 10 nM | – | – | Concentration of newly formed metabolite (SW480 cell line [1]; SW480, 72 h, substrate 3,5-di-O-Caffeoylquinic acid 50 μmol/L): 1070 ± 10 nM
COc1cc(/C=C/C(=O)O)ccc1O [Ferulic acid] | – | 60 ± 20 nM | – | 330 ± 10 nM | – | 370 ± 10 nM | – | – | –
COc1cc(-c2oc3cc(O)cc(O)c3c(=O)c2O)ccc1O [Isorhamnetin] | – | – | – | – | – | – | 10 ± 0 nM | 10 ± 0 nM | Concentration of newly formed metabolite (SW480 cell line [1]; [9]): 1610 ± 10 nM; Concentration of newly formed metabolite (SW480 cell line [1]; [10]): 3460 ± 80 nM; Concentration of newly formed metabolite (SW480 cell line [1]; [12]): 790 ± 30 nM; Concentration of newly formed metabolite (SW480 cell line [1]; [13]): 3760 ± 110 nM; Concentration of newly formed metabolite (SW480 cell line [1]; [15]): 1030 ± 40 nM
O=c1c(O[C@@H]2O[C@H](CO)[C@@H](O)[C@H](O)[C@H]2O)c(-c2ccc(O[C@@H]3O[C@H](CO)[C@@H](O)[C@H](O)[C@H]3O)c(O)c2)oc2cc(O)cc(O)c12 [Quercetin-3-O-glucoside-4′-O-glucoside, quercetin-3-O-glucoside-4′-O-glucoside] | – | – | – | – | – | – | – | – | IC50 (SW480 cell line [2]; SW480, 48 h of incubation): > 200 µM; IC50 (SW480 cell line [2]; SW480, 72 h of incubation): ~200 µM
O=c1c(O[C@@H]2O[C@H](CO)[C@@H](O)[C@H](O)[C@H]2O)c(-c2ccc(O)c(O)c2)oc2cc(O)cc(O)c12 [Quercetin-3-O-glucoside] | – | – | – | – | – | – | 8940 ± 30 nM | 9340 ± 50 nM | Concentration of newly formed metabolite (SW480 cell line [1]; SW480, 24 h, substrate Quercetin-3-O-glucoside-4′-O-glucoside 50 μmol/L): 3350 ± 10 nM

Source: publication PMC10418599, “Quercetins, Chlorogenic Acids and Their Colon Metabolites Inhibit Colon Cancer Cell Proliferation at Physiologically Relevant Concentrations” (International Journal of Molecular Sciences, 2023)
